Data reported in patent US9446026B2, “Ocular formulations for drug-delivery to the posterior segment of the eye” (PanOptica, Inc., priority 2013, dated 2016).
Read-outs that look alike come from different tables or passages of the source.

Columns and labels:
[1] = set-up: species or system Dutch-belted rabbits; conditions: rabbit, in vivo
[2] = tested on: pathologic retinal and choroidal neovascularization; assay: Topical ocular delivery in rodent models of retinal and choroidal neovascularization; type: in vivo
pathologic angiogenesis = assay: Systemic administration in murine cornea and rat growth plate models; type: in vivo
[3] = PK with topical ocular Compound-I in sodium phosphate-based Gel Drop; type: in vivo; conditions: Dutch-belted rabbits
From the text: The Gel Drop of Compound-I was applied to eyes of Dutch-belted rabbits.
The Gel Drop formulations (listed in Table 6) differed in several aspects, such as API concentration, sodium phosphate concentration, presence or absence of tonicity (glycerin) or preservative (benzalkoniumchloride/BAK) agents, solubilizing surfactants (polysorbate 80, tyloxapol, and/or poloxamer), and pH.

[4] = Ocular fluid and tissue concentrations, 0.4% Compound-I cyclodextrin solutions (Example 7, 24-day study); type: in vivo, Dutch-Belted rabbits; conditions: Dutch-Belted, rabbit, topical
Description: The ocular solution of Compound-I comprising cyclodextrin was prepared and tested in different groups of animals.

KDR (VEGFR-2) = KDR (VEGFR-2) (Homo sapiens (Human), UniProt P35968); assay: In vitro inhibition of tyrosine kinases; type: biochemical; conditions: 300 nM (170.67 ng/mL)
[5] = Solubility of Compound-I in cyclodextrin ophthalmic solution; type: physicochemical; conditions: HP-β-CD at ≥1:6 molar ratio or SBE-β-CD at ≥1:2 ratio
[6] = Ocular toxicology: clinical ophthalmic and microscopic examinations; type: in vivo, Dutch-Belted rabbits
From the text: (§1) Retinal function was normal in all test article and vehicle treated groups during full-field electroretinograms performed in rabbits.

[7] = target: recombinant FGFR-2 tyrosine kinase (Homo sapiens (Human), UniProt P21802); assay: Inhibition of recombinant FGFR-2 tyrosine kinase using exogenous substrate; type: biochemical
[8] = 5-day PK with topical ocular Compound-I in cyclodextrin-based solutions (Example 6); type: in vivo; conditions: HPβCD solutions, Dutch-Belted rabbits, q.d.; 24 hr after first daily dose on day 4 (Groups 5b, 6b); LLOQ 0.0218 μM
Description: All doses were administered with ±1 hour of the scheduled dose time, except on day 1 for Groups 1, 4, and 10. The first dose on day 1 was administered at 12:00 PM, and the second dose (for Groups 1 and 10) was administered approximately 4 hours after. This was due to delayed arrival of formulations. All other dosing for these groups was as scheduled. On day 1, Groups 4-8, and 11-12 received one dose (q.d.) for four (4) days. On days 1 through 4, Groups 1-3, and 9-10 received b.i.d. dosing approximately 8 hours apart for four (4) days.
Ocular sampling occurred one hour following the first daily dose on day 5 for all groups, except Groups 5b and 6b, where ocular sampling occurred 24 hours after the first daily dose on day 4.
Blood samples for plasma collection were obtained just prior to scheduled euthanasia for all animals. […] Cornea, central retina, and central choroid samples from groups 1-12 were assayed. Aqueous humor, peripheral retina, and peripheral choroid samples were not assayed.

[9] = set-up: species or system Dutch-Belted rabbits and beagle dogs; conditions: in vivo
From the text: Animals that received topical ocular administration of the tromethamine-based suspension were able to tolerate up to higher level of the active agent concentration in the formulation, as compared to equimolar formulations of the sodium phosphate-based Gel Drop.
Overall, the combination of decreased corneal exposure and corresponding improved ocular tolerability, while simultaneously maintaining or promoting drug delivery to the posterior segment target tissues, along with improved physicochemical stability, will provide greater benefit to patients compared to the ophthalmic Gel Drop formulation.
as §1

[10] = Ocular tissue concentrations, 0.3% Compound-I ophthalmic gel drop twice daily (toxicology study); type: in vivo, Dutch-Belted rabbits
[11] = Solubility of Compound-I drug substance; type: physicochemical
From the text: (§2) The embodiments provide three formulations of Compound-I or its free base—the Formula II compound.

[12] = pKa (water) of Compound-I drug substance; type: physicochemical
From the text: as §2

human tumor xenographs = assay: Human tumor xenographs in athymic mice; type: in vivo; conditions: systemic administration
FGFR-2 = FGFR-2 (Homo sapiens (Human), UniProt P21802); assay: In vitro inhibition of tyrosine kinases; type: biochemical
FGFR-4 = FGFR-4 (Homo sapiens (Human), UniProt P22455); assay: In vitro inhibition of tyrosine kinases; type: biochemical
[13] = Dutch-Belted (rabbit), beagle (dog), rabbit, dog
[14] = 0.3% Ophthalmic Gel Drop, Twice Daily 29 days
[15] = 0.3% ophthalmic gel drop with and without benzylalkonium chloride, twice daily, Dutch-Belted rabbits
[16] = 10-point titration curve (257 nM-5000 nM)

Chain of FGFR-2 (P21802 22-821): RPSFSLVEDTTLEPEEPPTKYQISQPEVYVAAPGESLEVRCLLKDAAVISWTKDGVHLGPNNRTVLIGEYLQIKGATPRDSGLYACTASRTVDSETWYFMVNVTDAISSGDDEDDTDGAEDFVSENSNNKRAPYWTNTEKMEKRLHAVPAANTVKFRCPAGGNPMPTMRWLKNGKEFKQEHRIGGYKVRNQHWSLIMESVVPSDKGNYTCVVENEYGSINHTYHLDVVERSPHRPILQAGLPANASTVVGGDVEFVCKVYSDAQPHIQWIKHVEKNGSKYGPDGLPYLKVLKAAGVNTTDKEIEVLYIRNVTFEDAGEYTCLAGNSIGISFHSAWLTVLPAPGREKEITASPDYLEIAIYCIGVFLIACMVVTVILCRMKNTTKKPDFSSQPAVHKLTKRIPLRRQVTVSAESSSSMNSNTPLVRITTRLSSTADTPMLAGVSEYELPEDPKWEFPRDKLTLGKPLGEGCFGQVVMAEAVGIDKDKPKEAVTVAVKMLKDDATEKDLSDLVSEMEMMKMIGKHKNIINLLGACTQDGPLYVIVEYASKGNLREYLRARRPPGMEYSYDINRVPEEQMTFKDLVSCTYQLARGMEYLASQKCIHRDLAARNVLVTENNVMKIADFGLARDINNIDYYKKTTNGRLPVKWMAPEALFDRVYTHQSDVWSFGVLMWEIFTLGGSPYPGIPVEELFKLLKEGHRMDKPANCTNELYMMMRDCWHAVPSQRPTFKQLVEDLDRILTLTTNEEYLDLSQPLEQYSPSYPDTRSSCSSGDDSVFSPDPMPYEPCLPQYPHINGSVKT
Chain of recombinant FGFR-2 tyrosine kinase (P21802 22-821): as above
Chain of FGFR-4 (P22455 22-802): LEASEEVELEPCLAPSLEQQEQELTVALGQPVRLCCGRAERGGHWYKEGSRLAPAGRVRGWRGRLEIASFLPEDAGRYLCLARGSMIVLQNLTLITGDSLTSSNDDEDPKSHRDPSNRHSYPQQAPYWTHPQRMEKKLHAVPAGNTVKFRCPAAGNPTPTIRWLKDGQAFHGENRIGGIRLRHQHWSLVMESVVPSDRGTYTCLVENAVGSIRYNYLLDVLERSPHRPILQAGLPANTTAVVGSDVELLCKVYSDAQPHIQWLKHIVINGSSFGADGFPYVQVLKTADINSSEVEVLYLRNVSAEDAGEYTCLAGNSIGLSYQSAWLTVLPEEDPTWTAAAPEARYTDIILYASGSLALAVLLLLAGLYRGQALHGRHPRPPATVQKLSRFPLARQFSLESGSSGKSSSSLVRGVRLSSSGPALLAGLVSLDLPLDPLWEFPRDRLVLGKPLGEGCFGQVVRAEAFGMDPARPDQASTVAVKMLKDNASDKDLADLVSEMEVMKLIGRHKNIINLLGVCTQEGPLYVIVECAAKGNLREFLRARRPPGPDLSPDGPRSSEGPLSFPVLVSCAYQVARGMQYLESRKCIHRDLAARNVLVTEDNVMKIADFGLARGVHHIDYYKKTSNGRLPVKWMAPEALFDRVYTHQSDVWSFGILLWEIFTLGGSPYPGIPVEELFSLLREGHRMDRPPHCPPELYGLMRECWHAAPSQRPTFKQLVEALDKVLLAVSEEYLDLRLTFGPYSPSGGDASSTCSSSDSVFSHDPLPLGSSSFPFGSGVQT
Chain of KDR (VEGFR-2) (P35968 20-1356): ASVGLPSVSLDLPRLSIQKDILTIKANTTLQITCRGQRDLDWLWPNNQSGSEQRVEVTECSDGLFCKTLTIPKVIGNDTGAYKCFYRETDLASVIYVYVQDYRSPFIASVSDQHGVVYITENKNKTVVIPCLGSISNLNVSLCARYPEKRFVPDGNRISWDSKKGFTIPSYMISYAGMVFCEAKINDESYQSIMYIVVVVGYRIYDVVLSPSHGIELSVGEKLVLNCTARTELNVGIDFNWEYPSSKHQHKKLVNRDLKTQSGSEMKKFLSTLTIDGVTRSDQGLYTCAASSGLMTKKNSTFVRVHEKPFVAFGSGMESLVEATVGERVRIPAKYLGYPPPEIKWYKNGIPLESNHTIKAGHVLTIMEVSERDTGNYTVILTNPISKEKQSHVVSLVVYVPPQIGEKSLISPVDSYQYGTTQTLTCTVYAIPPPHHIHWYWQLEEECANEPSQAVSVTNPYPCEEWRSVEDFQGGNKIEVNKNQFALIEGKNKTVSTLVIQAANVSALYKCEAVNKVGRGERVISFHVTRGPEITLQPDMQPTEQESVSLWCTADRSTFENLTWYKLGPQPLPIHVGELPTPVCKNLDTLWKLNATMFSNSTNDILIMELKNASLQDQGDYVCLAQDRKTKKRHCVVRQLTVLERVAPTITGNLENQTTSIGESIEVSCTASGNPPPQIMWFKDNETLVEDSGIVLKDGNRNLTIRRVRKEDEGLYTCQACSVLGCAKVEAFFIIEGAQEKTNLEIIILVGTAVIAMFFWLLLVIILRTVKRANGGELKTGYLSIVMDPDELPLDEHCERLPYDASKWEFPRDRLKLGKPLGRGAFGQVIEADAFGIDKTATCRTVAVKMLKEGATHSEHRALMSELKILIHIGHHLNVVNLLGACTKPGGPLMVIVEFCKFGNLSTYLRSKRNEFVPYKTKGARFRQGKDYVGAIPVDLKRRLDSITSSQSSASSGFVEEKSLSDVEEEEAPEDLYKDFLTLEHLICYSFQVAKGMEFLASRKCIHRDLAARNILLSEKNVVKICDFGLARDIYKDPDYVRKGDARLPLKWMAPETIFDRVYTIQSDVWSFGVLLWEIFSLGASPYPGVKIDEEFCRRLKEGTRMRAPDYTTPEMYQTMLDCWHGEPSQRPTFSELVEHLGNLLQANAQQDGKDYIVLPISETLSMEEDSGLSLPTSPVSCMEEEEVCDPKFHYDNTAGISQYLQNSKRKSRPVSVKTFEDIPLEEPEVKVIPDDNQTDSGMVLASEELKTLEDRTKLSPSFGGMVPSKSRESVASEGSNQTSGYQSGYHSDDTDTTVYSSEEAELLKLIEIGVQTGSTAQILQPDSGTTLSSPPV

Cl.NC(=O)c1c(OCc2c(F)cc(Br)cc2F)nsc1NC(=O)NCCCCN1CCCC1 [Compound-I, 3-[(4-bromo-2,6-difluorophenyl)methoxy]-5-[[[[4-(1-pyrrolidinyl)butyl]amino]carbonyl]amino]-4-isothiazolecarboxamide hydrochloride]
Reduction of corneal exposure with suspension-based and cyclodextrin formulations ([1]; Dutch-belted): 10-100 ×
Corneal concentrations with Gel Drop compared to Tris-based suspensions [1]: fifty-fold to hundred-fold higher
Corneal concentrations with Gel Drop compared to cyclodextrin based solution [1]: five-fold to fifteen-fold higher
Inhibition of pathologic retinal and choroidal neovascularization [2]: significant inhibition
Inhibition of pathologic angiogenesis (pathologic angiogenesis): shown to inhibit
Delivery of Compound-I to posterior segment tissues [3]: dose-dependent and dose-frequency dependent
concentration at 1 h ([4]; aqueous humor, 0.4 % (4 mg/mL), 30 μL/eye, Average concentration of Compound-I, Aqueous Humor, Group 8: 0.4% Compound-I in 8.41% KLEPTOSE HPB, 0.142% phosphate, 30 μL/eye, 2 doses per day): 6.56 nM
concentration at 1 h ([4]; aqueous humor, 0.4 % (4 mg/mL), 30 μL/eye, Average concentration of Compound-I, Aqueous Humor, Group 9: 0.4% Compound-I in […] KLEPTOSE HPB, 0.142% phosphate, 30 μL/eye, 2 doses per day): 3.13 nM
concentration at 1 h ([4]; aqueous humor, 0.4 % (4 mg/mL), 30 μL/eye, Average concentration of Compound-I, Aqueous Humor, Group 10: 0.4% Compound-I in 4.88% CAPTISOL, 0.142% phosphate, 30 μL/eye, 2 doses per day): 1.84 nM
concentration at 1 h ([4]; aqueous humor, 0.4 % (4 mg/mL), 30 μL/eye, Average concentration of Compound-I, Aqueous Humor, Group 11: 0.4% Compound-I in 4.88% CAPTISOL, […] phosphate, 30 μL/eye, 2 doses per day): 4.03 nM
concentration at 1 h ([4]; aqueous humor, 0.4 %, Aqueous humor concentration of Compound-I (range over groups), 0.4% Compound-I cyclodextrin solutions (KLEPTOSE or CAPTISOL), twice daily): 3.13 to 6.56 nM
concentration at 1 h ([4]; central choroid, 0.4 %): 259 to 769 nM
concentration at 1 h ([4]; central choroid, 0.4 % (4 mg/mL), 0.4% Ophthalmic Solution (CAPTISOL), Twice Daily 24 days, read-out: Central Choroid [Compound I]): 212 nM
concentration at 1 h ([4]; central choroid, 0.4 % (4 mg/mL), 0.4% Ophthalmic Solution (KLEPTOSE HP), Twice Daily 24 days, read-out: Central Choroid [Compound I]): 259 nM
concentration at 1 h ([4]; central choroid, 0.4 % (4 mg/mL), 0.4% Ophthalmic Solution (KLEPTOSE HPB), Twice Daily 24 days, read-out: Central Choroid [Compound I]): 769 nM
concentration at 1 h ([4]; central choroid, 0.4 % (4 mg/mL), 30 μL/eye, Average concentration of Compound-I, Central Choroid, Group 8: 0.4% Compound-I in 8.41% KLEPTOSE HPB, 0.142% phosphate, 30 μL/eye, 2 doses per day): 769 nM
concentration at 1 h ([4]; central choroid, 0.4 % (4 mg/mL), 30 μL/eye, Average concentration of Compound-I, Central Choroid, Group 9: 0.4% Compound-I in […] KLEPTOSE HPB, 0.142% phosphate, 30 μL/eye, 2 doses per day): 259 nM
concentration at 1 h ([4]; central choroid, 0.4 % (4 mg/mL), 30 μL/eye, Average concentration of Compound-I, Central Choroid, Group 10: 0.4% Compound-I in 4.88% CAPTISOL, 0.142% phosphate, 30 μL/eye, 2 doses per day): 212 nM
concentration at 1 h ([4]; central choroid, 0.4 % (4 mg/mL), 30 μL/eye, Average concentration of Compound-I, Central Choroid, Group 11: 0.4% Compound-I in 4.88% CAPTISOL, […] phosphate, 30 μL/eye, 2 doses per day): 345 nM
concentration at 1 h ([4]; central retina, 0.4 % (4 mg/mL), 30 μL/eye, Average concentration of Compound-I, Central Retina, Group 8: 0.4% Compound-I in 8.41% KLEPTOSE HPB, 0.142% phosphate, 30 μL/eye, 2 doses per day): 124 nM
concentration at 1 h ([4]; central retina, 0.4 % (4 mg/mL), 30 μL/eye, Average concentration of Compound-I, Central Retina, Group 9: 0.4% Compound-I in […] KLEPTOSE HPB, 0.142% phosphate, 30 μL/eye, 2 doses per day): 74.1 nM
concentration at 1 h ([4]; central retina, 0.4 % (4 mg/mL), 30 μL/eye, Average concentration of Compound-I, Central Retina, Group 10: 0.4% Compound-I in 4.88% CAPTISOL, 0.142% phosphate, 30 μL/eye, 2 doses per day): 53.1 nM
concentration at 1 h ([4]; central retina, 0.4 % (4 mg/mL), 30 μL/eye, Average concentration of Compound-I, Central Retina, Group 11: 0.4% Compound-I in 4.88% CAPTISOL, […] phosphate, 30 μL/eye, 2 doses per day): 101 nM
concentration at 1 h ([4]; central retina, 0.4 %, Central retina concentration of Compound-I (range over groups), 0.4% Compound-I cyclodextrin solutions (KLEPTOSE or CAPTISOL), twice daily): 53.1 to 124 nM
concentration at 1 h ([4]; cornea, 0.4 %): 6490 to 30000 nM
concentration at 1 h ([4]; cornea, 0.4 % (4 mg/mL), 0.4% Ophthalmic Solution (CAPTISOL), Twice Daily 24 days, read-out: Cornea [Compound I]): 6490 nM
concentration at 1 h ([4]; cornea, 0.4 % (4 mg/mL), 0.4% Ophthalmic Solution (KLEPTOSE HP), Twice Daily 24 days, read-out: Cornea [Compound I]): 8050 nM
concentration at 1 h ([4]; cornea, 0.4 % (4 mg/mL), 0.4% Ophthalmic Solution (KLEPTOSE HPB), Twice Daily 24 days, read-out: Cornea [Compound I]): 12300 nM
concentration at 1 h ([4]; cornea, 0.4 % (4 mg/mL), 30 μL/eye, Average concentration of Compound-I, Cornea, Group 8: 0.4% Compound-I in 8.41% KLEPTOSE HPB, 0.142% phosphate, 30 μL/eye, 2 doses per day): 12300 nM
concentration at 1 h ([4]; cornea, 0.4 % (4 mg/mL), 30 μL/eye, Average concentration of Compound-I, Cornea, Group 9: 0.4% Compound-I in […] KLEPTOSE HPB, 0.142% phosphate, 30 μL/eye, 2 doses per day): 8050 nM
concentration at 1 h ([4]; cornea, 0.4 % (4 mg/mL), 30 μL/eye, Average concentration of Compound-I, Cornea, Group 10: 0.4% Compound-I in 4.88% CAPTISOL, 0.142% phosphate, 30 μL/eye, 2 doses per day): 6490 nM
concentration at 1 h ([4]; cornea, 0.4 % (4 mg/mL), 30 μL/eye, Average concentration of Compound-I, Cornea, Group 11: 0.4% Compound-I in 4.88% CAPTISOL, […] phosphate, 30 μL/eye, 2 doses per day): 30000 nM
Mean % Inhibition at 300 nM Compound-I, KDR (VEGFR-2) (KDR (VEGFR-2)): completely inhibited
Compound-I dose strengths solubilised by cyclodextrin [5]: 0.1-1.0%
Microscopic evaluation of eyes, Tris-based suspension ([6]; 0.3% w/v twice daily for 30 days): considered normal
Findings attributed to test-article after 30 days of 0.6% cyclodextrin-based solution ([6]; Dutch-belted rabbits, topical ocular): no untoward findings
Tolerability of HP-β-CD cyclodextrin-based solutions, 30 days ([6]; rabbit, in vivo): well tolerated
Tolerability of Tris-based suspension formulations ([6]; rabbit, in vivo): well tolerated
Tolerability of cyclodextrin-based solutions, 24 days ([6]; rabbit, in vivo): well-tolerated
Retinal function, full-field electroretinograms ([6]; rabbits, all test article treated groups): normal
IC50 [7]: 8.79 nM
IC50, recombinant FGFR-2 tyrosine kinase ([7]; hydrochloride): 5 ng/mL and (5) ng/mL
Average Concentration, Central Retina [8]: <LLOQ
Corneal exposure of ophthalmic solution lower than equimolar ophthalmic gel drops [9, 13]: 5 to 10 fold
Corneal tissue exposure with ophthalmic gel drops [9, 13]: ≥ 100 µM
Alterations of deeper structures of the eye or optic nerve, ophthalmic gel drops [9]: No untoward alterations
Clinical or histopathologic findings with ophthalmic solution [9]: free of untoward clinical or histopathologic findings
Central Choroid [Compound I] [10, 14]: 0.340 µM
Cornea [Compound I] [10, 14]: 236.00 µM
Mean ocular tissue concentration, aqueous humor [10, 15]: 0.0197 to 0.0395 µM
Mean ocular tissue concentration, peripheral choroid [10, 15]: 2.79 to 4.10 µM
Mean ocular tissue concentration, peripheral retina [10, 15]: 0.150 to 0.309 µM
solubility ([11]; 0.1N HCl, simulated gastric fluid): 40 µg/mL
solubility ([11]; 0.1N NaOH, aqueous buffer): 50 µg/mL
solubility ([11]; acetonitrile, organic solvent or mixture): 40 µg/mL
solubility ([11]; aqueous buffer, pH 7.5 (0.05M NaH2PO4)): 1000 µg/mL
solubility ([11]; aqueous buffer, pH 9.0 (0.05m Na2HPO4)): 700 µg/mL
solubility ([11]; deionized water, water): 500 to 1200 µg/mL
solubility ([11]; ethanol, organic solvent or mixture): 700 µg/mL
solubility ([11]; hexanes, organic solvent or mixture): < 10 µg/mL
solubility ([11]; methanol, organic solvent or mixture): 4300 µg/mL
solubility ([11]; tetrahydrofuran, organic solvent or mixture): 20 µg/mL
pKa [12]: 10.5
Inhibition of growth of human tumor xenographs (human tumor xenographs): shown to inhibit
IC50 (FGFR-2; [16]): 3.08 nM
IC50, FGFR-2 (FGFR-2; 10-point titration curve, hydrochloride): 1.75 ng/mL and (1.75) ng/mL
IC50, FGFR-4 (FGFR-4; 10-point titration curve): (284.45) ng/mL
IC50 (FGFR-4; [16]): 500 nM
